# Reference: publication PMC9030947, “Identification of Novel Natural Product Inhibitors against Matrix Metalloproteinase 9 Using Quantum Mechanical Fragment Molecular Orbital-Based Virtual Screening Methods” (International Journal of Molecular Sciences, 2022)
# Molecular target: T1, MMP-9 (Homo sapiens, UniProt P14780)
# T1 construct: gene MMP9; Purified recombinant human MMP-9 protein with a His-tag (catalog number 10327-H08H)
# Test: SPR (Biacore […], MMP-9 immobilized by amine coupling)
# Format: binding
# T1 sequence (P14780 107-707): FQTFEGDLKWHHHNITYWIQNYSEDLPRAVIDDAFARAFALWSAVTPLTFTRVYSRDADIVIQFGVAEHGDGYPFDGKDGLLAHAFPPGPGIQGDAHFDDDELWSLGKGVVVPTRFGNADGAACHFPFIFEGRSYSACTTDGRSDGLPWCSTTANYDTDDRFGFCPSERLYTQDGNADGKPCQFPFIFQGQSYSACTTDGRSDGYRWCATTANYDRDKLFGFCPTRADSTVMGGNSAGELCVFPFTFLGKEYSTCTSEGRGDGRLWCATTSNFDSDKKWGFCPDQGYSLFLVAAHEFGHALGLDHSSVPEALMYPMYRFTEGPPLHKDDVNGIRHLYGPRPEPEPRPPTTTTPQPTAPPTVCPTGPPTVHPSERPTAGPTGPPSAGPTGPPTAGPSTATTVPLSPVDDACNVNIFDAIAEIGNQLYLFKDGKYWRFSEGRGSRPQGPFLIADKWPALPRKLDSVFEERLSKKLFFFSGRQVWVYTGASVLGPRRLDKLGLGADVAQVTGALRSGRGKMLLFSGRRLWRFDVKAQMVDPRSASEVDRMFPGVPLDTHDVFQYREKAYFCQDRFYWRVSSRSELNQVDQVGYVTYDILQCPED
row,SMILES,Kd [µM]
1,"COc1cc2c(cc1O)-c1c(OC)c(O)cc3c1[C@H](C2)NCC3 [compound 9, laetanine]",21.6
2,"COc1cc(O)c2c(=O)cc(-c3ccc(O)cc3)oc2c1 [compound 10, genkwanin]",0.614
